Data on 16 compounds can be found in PubChem BioAssay (NCI).

What all share (assay): NCI anticancer screen, dose series, 48 h
The test system of test [1] is SK-OV-3 ovarian.
The test system of test [2] is HCC-2998 colon.
Test [3] concerns SK-MEL-2 melanoma.
Test [4] concerns TK-10 renal.
Test [5] relates to RXF 393 renal.
Test [6] has as its system A498 renal.
The test system of test [7] is COLO 205 colon.
Test [8] deals with NCI-H460 lung.
Test [9] relates to 786-0 renal.
For test [10], the system named is MDA-MB-435.

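How tested: cells in 96-well plates exposed to compound for 48 hours at five concentrations. GI50 is the concentration that inhibits growth by half. Definition used: TGI = concentration required for complete inhibition of growth.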

Turning to `N=C(N)c1ccc(-c2ccc(-c3cccs3)s2)cc1`, the GI50 in [1] is 4.15 µM; in test [2], 0.747 µM; in [3] it was 13.4 µM; in test [4], 1.4 µM; in test [5], 13.9 µM; in test [6], 0.462 µM. The TGI amounted to 9.64 µM in test [1]; 2.17 µM in test [2]; 32 µM in test [3]; 2.91 µM in [4]; 35.5 µM in [5]; 3.04 µM in test [6].
Regarding `Cc1cn([C@@H]2C[C@H](CO)[C@@H](O)C2)c(=O)[nH]c1=O`, the TGI in [7], in test [1], in test [2], in [3] and in test [8] was > 100 µM in each case.
In the case of `Cn1ccnc1C(O)(c1nccn1C)c1nccn1C`, the TGI in [7], in test [2], in test [3], in [8], in test [4] and in test [5] was > 100 µM throughout.
On to `O=C(CN(c1ccccc1)c1ccccc1)N1c2ccccc2C2C=CC=CC21` (configuration not stated), for which the TGI in [7] is 24.7 µM; in test [1], > 56.4 µM; in [2] it was 22.7 µM; in test [9], 56.3 µM; in [3], 38.8 µM; in test [8], 36.1 µM. The values for the TGI in [4], in test [5] and in test [6] were > 57.2 µM, > 54.7 µM and 77.4 µM, respectively.
With `COc1c(O)c2c3c(c(C)cc(O)c3c1O)C(=O)C(O)(C(C)(C)C(C)=O)C2=O` (configuration not stated), the TGI in test [7], in [1], in [9], in test [3], in [8] and in [4] was > 100 µM each time. Moreover, in [5], the TGI is > 100 µM.
For `CCOC(=O)c1c(-c2ccccc2)c(-c2ccccc2)cn1C`, the TGI in test [10], in [1], in [2], in test [9], in test [3] and in [8] was > 10 µM in each case. Moreover, the TGI in test [4] and in test [5] was > 10 µM throughout.
For `Cc1ccc(CC[P+](=O)CCc2ccc(C)nc2)cn1`, the TGI in test [10], in test [7], in test [1], in [2], in test [9] and in test [8] was > 100 µM each time. Moreover, the TGI in [4] and in [5] was > 100 µM each time.
Turning to `O=c1ccn(C2OC(CO)C(P(=O)(O)O)C2O)c(=O)[nH]1` (configuration not stated), the TGI in [2], in [9], in [3], in [8], in test [4] and in test [5] was > 100 µM throughout. Further, the TGI in test [6] is > 100 µM.
For the compound `COC(=O)/C(=N/O)C(C(=O)C=C(C)C)C(=O)C(=O)Nc1nc2ccc([N+](=O)[O-])cc2s1` (configuration not stated), the TGI in test [7] is > 100 µM; in test [1], 63 µM; in test [2], > 100 µM; in [9] it was > 100 µM; in test [3], 71.9 µM; in [8], > 100 µM. Besides, the TGI in [4] was found to be 95.8 µM; in test [6], 31 µM.
In the case of `O=C1NCCS(=O)(=O)N[C@@H](CC2=CC=CCC2)C(=O)N2CCCC12` (some centres not stated), the TGI in test [7], in test [1], in test [2], in [9], in [3] and in test [8] was > 100 µM in each case. For the same compound, the TGI in test [4], in test [5] and in test [6] was > 100 µM each time.
For `O=c1[nH]cnc2c1ncn2[C@@H]1C[C@@H]1CO`, the TGI in test [10], in [7], in test [2], in test [9], in test [3] and in test [8] was > 100 µM each time. For the same compound, the TGI in test [4] and in [5] was > 100 µM each time.
With `O=C(Nc1ccccc1F)c1cc2ccc(O)cc2oc1=Nc1ccccc1F`, the TGI was found to be 4.24 µM in test [10]; 61.7 µM in [7]; 42.1 µM in test [1]; 8.04 µM in test [2]; 3.34 µM in test [9]; 4.05 µM in test [3]. The compound also yielded a TGI in test [8] of 6.18 µM.
Take `Cc1cccc(C2=C/C(=C(\SS/C(C(=O)c3ccc(OCC(=O)O)c(Cl)c3Cl)=C3\C=C(c4cccc(C)c4)SS3)C(=O)c3ccc(OCC(=O)O)c(Cl)c3Cl)SS2)c1`: the TGI was 38.3 µM in [7]; > 100 µM in test [1]; > 100 µM in test [2]; 41.7 µM in [9]; 39.8 µM in test [3]; > 68.1 µM in test [8]. The results for the TGI in [4] and in test [6] were > 88.2 µM and 49.4 µM, respectively.
For `CC1CN=C(N(C(=O)Nc2ccc(F)c(Cl)c2)c2ccccc2)S1` (configuration not stated), the TGI turned out to be 38.9 µM in test [7]; 98.7 µM in test [1]; 56 µM in test [9]; 32.8 µM in [3]; 84.1 µM in test [8]; 68.4 µM in [4]. In [6], this compound had a TGI of 62.1 µM.
As for `CSC(=Nc1ccccc1)N(c1ccccc1)c1nc(=[N+](C)C)ss1`, the TGI stood at 3.88 µM in test [7]; 38.5 µM in [1]; 20.7 µM in [2]; 19.3 µM in test [9]; 11.7 µM in test [3]; 18.1 µM in [8]. Besides, the TGI came to 27.7 µM in [4], 12.7 µM in test [5] and 27.9 µM in [6].
Take `S=c1[nH]c2ccc(Br)cc2c(=S)s1`: the TGI in test [10] is 67.2 µM; in test [7], 32.2 µM; in test [1] it was > 100 µM; in test [2], 63.7 µM; in test [9] it was > 100 µM; in test [3], 61.8 µM. The TGI in test [8] is 62.4 µM; in test [4], 84.5 µM; in test [5], > 100 µM.
